Laboratory results from patent US20160368879A1, “PHOTOACID GENERATOR, AND RESIN COMPOSITION FOR PHOTOLITHOGRAPHY” (SAN-APRO LTD., priority 2013, published 2016).

Legend:
Assay type in all cases: physicochemical
[1] = Molar extinction coefficient of i-line (365 nm), UV-visible absorbance in acetonitrile; conditions: 0.25 mmol/L in acetonitrile, cell length 1 cm
Method: The synthesized photoacid generator was diluted to 0.25 mmol/L with acetonitrile, and using an ultraviolet-visible spectrophotometer (UV-2550 available from SHIMADZU CORPORATION), the absorbance in a range of 200 nm to 500 nm was measured with a cell having an optical path length (a cell length) of 1 cm. The molar extinction coefficient of i-line (365 nm) (ε365) was calculated from the following equation.
[In the equation, […] represents the absorbance at 365 nm.]

[2] = Solvent solubility (butyl acetate, toluene or PGMEA); conditions: 25° C.
Method: In a test tube, 0.1 g of the synthesized photoacid generator was placed, and an organic solvent (butyl acetate, toluene or PGMEA) was added thereto in 0.2 g portions under a condition where the temperature was adjusted to 25° C. until the photoacid generator was completely dissolved. In this connection, in the case where the photoacid generator was not completely dissolved even when 20 g of the solvent was added, the photoacid generator was evaluated as one that was not dissolved.

[3] = Thermal decomposition temperature (TG/DTA, 2% weight reduction); conditions: point of 2% weight reduction; 10° C./minute from 30° C. to 500° C.; nitrogen atmosphere
Method: The synthesized photoacid generator was measured for the change in weight under a temperature increasing condition of 10° C./minute from 30° C. to 500° C. under a nitrogen atmosphere using a thermal gravimetric/differential thermal analyzer (TG/DTA 6200, available from Seiko Instruments Inc.), and a point where the weight was reduced by 2% was defined as the thermal decomposition temperature.

Row | Structure (SMILES) | Molar extinction coefficient [1] [L/mol/cm] | Solvent solubility PGMEA [2] [wt %] | Solvent solubility Butyl acetate [2] [wt %] | Solvent solubility Toluene [2] [wt %] | Thermal decomposition temperature [3] [°C]
1 | C[Si](C)(C)c1ccc2c3c(cccc13)C(=O)N(OS(=O)(=O)c1c(F)c(F)c(F)c(F)c1F)C2=O [Example A-38, 4-trimethylsilyl-1,8-naphthalimide pentafluorobenzenesulfonate] | 5500 | 5.5 | 5.5 | 6 | 241
2 | O=C1c2cccc3c(Cl)ccc(c23)C(=O)N1OS(=O)(=O)c1c(F)c(F)c(F)c(F)c1F [Example A-39, 4-chloro-1,8-naphthalimide pentafluorobenzenesulfonate] | 6000 | 3.5 | 3 | 5 | 225
3 | O=C1c2cccc3c(Br)ccc(c23)C(=O)N1OS(=O)(=O)c1c(F)c(F)c(F)c(F)c1F [Example A-40, 4-bromo-1,8-naphthalimide pentafluorobenzenesulfonate] | 8500 | 3.2 | 3 | 4.5 | 243
4 | CC(C)Oc1ccc2c3c(cccc13)C(=O)N(OS(=O)(=O)CC13CCC(CC1=O)C3(C)C)C2=O (stereo not drawn) [Example A-41, 4-isopropoxy-1,8-naphthalimide-(+)-10-camphorsulfonate] | 16300 | 1.8 | 1.7 | 2 | 239
5 | CCCOc1ccc2c3c(cccc13)C(=O)N(OS(=O)(=O)CC13CCC(CC1=O)C3(C)C)C2=O (stereo not drawn) [Example A-42, 4-n-propoxy-1,8-naphthalimide-(+)-10-camphorsulfonate] | 14000 | 1.2 | 1.5 | 2 | 245
6 | CC1(C)C2CCC1(CS(=O)(=O)ON1C(=O)c3cccc4c(OCC(F)(F)C(F)F)ccc(c34)C1=O)C(=O)C2 (stereo not drawn) [Example A-43, 4-(2,2,3,3-tetrafluoro-1-propoxy)-1,8-naphthalimide-(+)-10-camphorsulfonate] | 12000 | 3 | 3 | 3.5 | 231
7 | CC1(C)C2CCC1(CS(=O)(=O)ON1C(=O)c3cccc4c(C(=O)Cc5ccccc5)ccc(c34)C1=O)C(=O)C2 (stereo not drawn) [Example A-44, 4-phenylacetyl-1,8-naphthalimide-(+)-10-camphorsulfonate] | 3000 | 1.8 | 1.4 | 1.8 | 233
8 | CC1(C)C2CCC1(CS(=O)(=O)ON1C(=O)c3cccc4c(Oc5c(F)c(F)c(F)c(F)c5F)ccc(c34)C1=O)C(=O)C2 (stereo not drawn) [Example A-45, 4-pentafluorophenoxy-1,8-naphthalimide-(+)-10-camphorsulfonate] | 12000 | 3.5 | 4 | 4 | 245
9 | CC1(C)C2CCC1(CS(=O)(=O)ON1C(=O)c3cccc4c(Oc5cccc(C(F)(F)F)c5)ccc(c34)C1=O)C(=O)C2 (stereo not drawn) [Example A-46, 4-(3-trifluoromethylphenoxy)-1,8-naphthalimide-(+)-10-camphorsulfonate] | 16000 | 2.8 | 3.5 | 3.3 | 243
10 | CC1(C)C2CC[C@@]1(CS(=O)(=O)ON1C(=O)c3cccc4c(Sc5ccccc5)ccc(c34)C1=O)C(=O)C2 [Example A-47, 4-phenylthio-1,8-naphthalimide-(+)-10-camphorsulfonate] | 20000 | 1.3 | 1.8 | 1.7 | 244
11 | COc1cc2c3c(cccc3c1)C(=O)N(OS(=O)(=O)C[C@]13CCC(CC1=O)C3(C)C)C2=O [Example A-48, 3-methoxy-1,8-naphthalimide-(+)-10-camphorsulfonate] | 7500 | 1.5 | 2 | 1.9 | 242
12 | CCCCC(CC)C(=O)Oc1cc2c3c(cccc3c1)C(=O)N(OS(=O)(=O)CC13CCC(CC1=O)C3(C)C)C2=O (stereo not drawn) [Example A-49, 3-(2-ethylhexanoyloxy)-1,8-naphthalimide-(+)-10-camphorsulfonate] | 1500 | 8 | 11 | 9 | 232
13 | CCCC(=O)Oc1cc2c3c(cccc3c1)C(=O)N(OS(=O)(=O)CC13CCC(CC1=O)C3(C)C)C2=O (stereo not drawn) [Example A-50, 3-butyroyloxy-1,8-naphthalimide-(+)-10-camphorsulfonate] | 1600 | 7.2 | 9 | 7 | 237
14 | CC1(C)C2CC[C@@]1(CS(=O)(=O)ON1C(=O)c3cccc4cc(OC(=O)c5ccccc5)cc(c34)C1=O)C(=O)C2 [Example A-51, 3-benzoyloxy-1,8-naphthalimide-(+)-10-camphorsulfonate] | 1400 | 5 | 6 | 6 | 245
15 | CC1(C)C2CC[C@@]1(CS(=O)(=O)ON1C(=O)c3cccc4cc(OC(=O)c5c(F)c(F)c(F)c(F)c5F)cc(c34)C1=O)C(=O)C2 [Example A-52, 3-pentafluorobenzoyloxy-1,8-naphthalimide-(+)-10-camphorsulfonate] | 1300 | 7.5 | 12 | 10 | 245
16 | CC(C)(C)c1cc2c3c(cc(C(C)(C)C)cc3c1)C(=O)N(OS(=O)(=O)CC13CCC(CC1=O)C3(C)C)C2=O (stereo not drawn) [Example A-53, 3,6-di-tert-butyl-1,8-naphthalimide-(+)-10-camphorsulfonate] | 6500 | 1.7 | 2 | 1.9 | 247
17 | CC(C)(C)Cc1cc2c3c(cc(CC(C)(C)C)cc3c1)C(=O)N(OS(=O)(=O)CC13CCC(CC1=O)C3(C)C)C2=O (stereo not drawn) [Example A-54, 3,6-dineopentyl-1,8-naphthalimide-(+)-10-camphorsulfonate] | 6200 | 3.5 | 4.5 | 2.5 | 252
18 | CC1(C)C2CC[C@@]1(CS(=O)(=O)ON1C(=O)c3cc(C45CC6CC(CC(C6)C4)C5)cc4cc(C56CC7CC(CC(C7)C5)C6)cc(c34)C1=O)C(=O)C2 [Example A-55, 3,6-diadamantyl-1,8-naphthalimide-(+)-10-camphorsulfonate] | 6000 | 1.7 | 2 | 2.1 | 253
19 | CC1(C)C2CCC1(CS(=O)(=O)ON1C(=O)c3cccc4c(C(F)(F)C(F)(F)C(F)(F)C(F)(F)F)ccc(c34)C1=O)C(=O)C2 (stereo not drawn) [Example A-56, 4-(nonafluorobutyl)-1,8-naphthalimide-(+)-10-camphorsulfonate] | 40 | 5 | 5 | 5.5 | 241
20 | CC1(C)C2CCC1(CS(=O)(=O)ON1C(=O)c3cccc4c(C(F)(F)C(F)(F)C(F)(F)C(F)(F)C(F)(F)C(F)(F)C(F)(F)C(F)(F)F)ccc(c34)C1=O)C(=O)C2 (stereo not drawn) [Example A-57, 4-(heptadecafluoro-n-octyl)-1,8-naphthalimide-(+)-10-camphorsulfonate] | 80 | 9 | 9.5 | 10 | 246
